One data set has as its system HOP-62. The experiment in a line: NCI60 antiproliferative screen, lung HOP-62. In kind it is cell-based, human. The conditions noted are these: HOP-62, 48 h, sulforhodamine B; read-out: Cytotoxicity (GI50) lung HOP-62. The method, boiled down: (§1)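 Cells were exposed to compounds at 100, 10, 1, 0.1 and 0.01 μM for 48 h, then stained with sulforhodamine B. Optical density relative to control was plotted as percentage growth versus log10 concentration, and GI50 was interpolated between the points bracketing 50% growth.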

Another data set has as its system HCT-116. The experiment in a line: NCI60 antiproliferative screen, colon HCT-116. In kind it is cell-based, human. The following applies: HCT-116, 48 h, sulforhodamine B; read-out: Cytotoxicity (GI50) Colon HCT-116. The procedure, abridged:
as §1

A further data set deals with T1, Human recombinant Top1 (Homo sapiens, UniProt P11387).
T1 construct: made in house
T1 sequence (P11387 1-765): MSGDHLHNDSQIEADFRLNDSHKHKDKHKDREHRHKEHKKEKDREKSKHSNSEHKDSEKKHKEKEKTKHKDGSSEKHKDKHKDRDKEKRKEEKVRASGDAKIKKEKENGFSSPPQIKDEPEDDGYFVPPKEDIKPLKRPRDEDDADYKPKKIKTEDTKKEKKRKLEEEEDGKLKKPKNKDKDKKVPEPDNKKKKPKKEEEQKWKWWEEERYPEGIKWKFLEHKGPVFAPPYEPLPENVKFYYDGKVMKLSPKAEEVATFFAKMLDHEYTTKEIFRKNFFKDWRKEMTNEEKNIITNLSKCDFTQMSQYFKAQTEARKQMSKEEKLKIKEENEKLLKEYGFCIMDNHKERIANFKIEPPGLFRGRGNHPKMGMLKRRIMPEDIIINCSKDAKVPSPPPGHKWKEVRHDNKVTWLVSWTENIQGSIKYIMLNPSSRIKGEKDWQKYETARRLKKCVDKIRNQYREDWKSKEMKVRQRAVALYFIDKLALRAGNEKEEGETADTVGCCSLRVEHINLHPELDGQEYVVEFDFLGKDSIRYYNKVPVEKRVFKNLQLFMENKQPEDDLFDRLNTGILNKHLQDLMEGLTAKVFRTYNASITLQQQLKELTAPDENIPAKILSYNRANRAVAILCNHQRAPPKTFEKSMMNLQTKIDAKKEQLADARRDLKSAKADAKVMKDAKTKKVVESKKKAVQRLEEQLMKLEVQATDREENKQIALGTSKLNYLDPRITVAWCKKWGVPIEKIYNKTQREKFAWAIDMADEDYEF
The experiment in a line: Top1-mediated DNA cleavage assay. The conditions noted are these: graded relative to 1 μM camptothecin. On the set-up: key to Top 1 Cleavage: 0, no inhibitory activity; +, between 20 and 50% activities; ++, between 50 and 75% activity; +++, between 75 and 95% activity; ++++, equipotent. The data set is classed as biochemical. The procedure, abridged:
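About 2 nM 3′-[32P]-labelled 117-bp DNA incubated with baculovirus-expressed recombinant Top1 at 25 °C for 20 min (Tris pH 7.5, KCl, MgCl2, EDTA, BSA) at four compound concentrations; stopped with 0.5% SDS. Denaturing 20% PAGE, phosphorimaging; cleavage scored semiquantitatively (0 to ++++) against reference compounds.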

A word on the GI50: it is the concentration giving 50% growth inhibition.

Regarding `COC(=O)CCC(=O)Oc1cc2c(=O)n(CCCN3CCOCC3)c3c(c2cc1OC)C(=O)c1cc2c(cc1-3)OCO2` [Compound 17, 2-Methoxy-6-(3-morpholinopropyl)-5,12-dioxo-6,12-dihydro-5H-[1,3]dioxolo[4′,5′:5,6]indeno[1,2-c]isoquinolin-3-yl Methyl Succinate], the figures for the GI50 in the data set on HOP-62 and in the data set on HCT-116 were 16 nM and 20 nM, respectively. Besides, on Human recombinant Top1, the “Top 1 Cleavage” value was found to be 0.
